Key:
[1] = system: taste fibers predominantly responsive to sweeteners (S fibers) in the Chorda Tympani (CT) nerves; assay: taste nerve fiber recordings during stimulation of the tongue; format: in vivo; settings: fiber nerve recordings from rhesus monkey Chorda Tympani nerves, FIG. 4
Experimental: (§1) To test the sweetness potency of SEQ ID NOS. 3 and 5, we tested the perception of sweetness using a concentration of 100 ug/ml of the protein in water. One test panel consisted of monkeys. The other test panel was of humans. The response measured in the monkeys was level of activity of taste nerve fibers during the stimulation of the tongue with different compounds being tested. Humans were requested to score the sweetness sensations of the stimuli with a magnitude labeled scale in accordance with the techniques of B. Green et al., 21 Chemical Senses 323 (1996) (e.g. barely detectable; weak; moderate; strong; very strong; strongest imaginable).
We used rhesus monkey nerves as an animal model to test primate taste responses to sweet proteins. […] The triangle markings on FIG. 4 indicate exposure timing.

humans = assay: human panel sweetness scoring on a labeled magnitude scale; format: in vivo; settings: 100 ug/ml of the protein in water; monkey and human test panels
Experimental: as §1

[2] = level of heat typically present during baking of foods; cited from earlier work

Row | Substance | nerve response recording profile compared with sucrose [1] | sweetness relative to recombinantly produced wild type (des-pGlul) (humans) | stability to heat [2]
1 | Glu36Ala: comparative Brazzein variant with Glu at position 36 replaced by Ala (QDKCKKVYENYPVSKCQLANQCNYDCKLDKHARSGACFYDEKRNLQCICDYCEY; UniProt P56552 1-54, looked up, variant E36A) | more distinct |  | 
2 | D29K: Brazzein variant in which the Asp at position 29 is replaced with Lys (DKCKKVYENYPVSKCQLANQCNYDCKLKKHARSGECFYDEKRNLQCICDYCEY) |  | 3 to 4 times | 
3 | D29N: Brazzein variant in which the Asp at position 29 is replaced with Asn (DKCKKVYENYPVSKCQLANQCNYDCKLNKHARSGECFYDEKRNLQCICDYCEY) | remarkably close to that of sucrose | 3 to 4 times | 
4 | Brazzein: sweet protein; SEQ ID NO: 1 is natural Brazzein minus the beginning Glu, recombinantly produced wild type (DKCKKVYENYPVSKCQLANQCNYDCKLDKHARSGECFYDEKRNLQCICDYCEY; listed as Pentadiplandra brazzeana) | more distinct |  | stable

— patent publication US7153535B2, “Protein sweetener” (Wisconsin Alumni Research Foundation, priority 2002, dated 2006)
